± gives the expanded uncertainty stated by the source.
Test: activity coefficient (dimensionless); of the first substance listed, at infinite dilution; xn = mol fraction of the nth substance listed
Conditions: 101 kPa, Liquid, Chromatography, x1 = 0

Row | activity coefficient (333.2 K) | activity coefficient (348.2 K) | activity coefficient (363.2 K) | SMILES
1 | 50.2 ± 3.4 | 43.5 ± 3 | 38.2 ± 2.6 | CCCCCCCCC [nonane] + O=CN1CCOCC1
2 | 9.51 ± 0.65 | 9.19 ± 0.63 | 8.51 ± 0.58 | CCCCCC [hexane] + CN1CCCC1=O
3 | 2.56 ± 0.17 | 2.58 ± 0.18 | 2.38 ± 0.16 | C#CCCC [1-pentyne] + O=CN1CCOCC1
4 | 1.27 ± 0.08 | 1.41 ± 0.09 | 1.63 ± 0.11 | C#CCCC [1-pentyne] + CN1CCCC1=O
5 | 1.1 ± 0.07 | 1.14 ± 0.07 | 1.1 ± 0.07 | c1ccccc1 [benzene] + CN1CCCC1=O
6 | 1.2 ± 0.077 | 1.14 ± 0.073 | 0.914 ± 0.058 | CCO [ethanol] + O=CN1CCOCC1
7 | 1.72 ± 0.12 | 1.79 ± 0.12 | 1.92 ± 0.13 | C#CCCCCC [1-heptyne] + CN1CCCC1=O
8 | 2.07 ± 0.14 | 2.15 ± 0.15 | 2.16 ± 0.15 | C#CCCCCCC [1-octyne] + CN1CCCC1=O
9 | 0.627 ± 0.043 | 0.639 ± 0.044 | 0.632 ± 0.044 | CC(C)O [propan-2-ol] + CN1CCCC1=O
10 | 16.7 ± 1.1 | 14.9 ± 1 | 12 ± 0.82 | CCCCCCCCC [nonane] + CN1CCCC1=O
11 | 15.4 ± 1.1 | 12.7 ± 0.87 | 10.5 ± 0.71 | C1CCCCCC1 [cycloheptane] + O=CN1CCOCC1
12 | 0.852 ± 0.055 | 0.847 ± 0.054 | 0.706 ± 0.047 | CO [methanol] + O=CN1CCOCC1
13 | 3.25 ± 0.22 | 3.19 ± 0.22 | 2.78 ± 0.19 | C#CCCCC [1-hexyne] + O=CN1CCOCC1
14 | 0.482 ± 0.037 | 0.556 ± 0.04 | 0.511 ± 0.038 | CO [methanol] + CN1CCCC1=O
15 | 8.39 ± 0.57 | 7.6 ± 0.52 | 6.7 ± 0.46 | C=CCCCCCC [oct-1-ene] + CN1CCCC1=O
16 | 17.7 ± 1.2 | 14.5 ± 0.99 | 11.9 ± 0.81 | C1CCCCCCC1 [cyclooctane] + O=CN1CCOCC1
17 | 10.2 ± 0.7 | 8.75 ± 0.6 | 7.59 ± 0.52 | C1CCCC1 [cyclopentane] + O=CN1CCOCC1
18 | 0.537 ± 0.039 | 0.552 ± 0.04 | 0.548 ± 0.04 | CCCO [propan-1-ol] + CN1CCCC1=O
19 | 1.47 ± 0.1 | 1.57 ± 0.1 | 1.77 ± 0.12 | C#CCCCC [1-hexyne] + CN1CCCC1=O
20 | 1.91 ± 0.13 | 1.82 ± 0.12 | 1.81 ± 0.12 | c1ccccc1 [benzene] + O=CN1CCOCC1
21 | 20.5 ± 1.4 | 18.4 ± 1.3 | 16.7 ± 1.1 | C=CCCCCCC [oct-1-ene] + O=CN1CCOCC1
22 | 13.5 ± 0.92 | 11.6 ± 0.79 | 10.5 ± 0.72 | C=CCCCC [hex-1-ene] + O=CN1CCOCC1
23 | 3.46 ± 0.24 | 3.41 ± 0.23 | 3.21 ± 0.22 | CCc1ccccc1 [ethylbenzene] + O=CN1CCOCC1

Row | activity coefficient (333.2 K) | activity coefficient (348.2 K) | activity coefficient (363.2 K) | SMILES
24 | 5.51 ± 0.38 | 5.44 ± 0.37 | 5.57 ± 0.38 | C=CCCCC [hex-1-ene] + CN1CCCC1=O
25 | 16 ± 1.1 | 14.6 ± 1 | 13.3 ± 0.91 | C=CCCCCC [1-heptene] + O=CN1CCOCC1
26 | 19.2 ± 1.3 | 17.3 ± 1.2 | 15.3 ± 1 | CCCCC [pentane] + O=CN1CCOCC1
27 | 1.73 ± 0.12 | 1.83 ± 0.12 | 1.61 ± 0.11 | CCc1ccccc1 [ethylbenzene] + CN1CCCC1=O
28 | 39.5 ± 2.7 | 34.3 ± 2.4 | 30.6 ± 2.1 | CCCCCCCC [octane] + O=CN1CCOCC1
29 | 6.32 ± 0.43 | 5.83 ± 0.4 | 5.41 ± 0.37 | C1CCCCC1 [cyclohexane] + CN1CCCC1=O
30 | 9.97 ± 0.68 | 9.43 ± 0.64 | 8.61 ± 0.59 | C=CCCC [1-pentene] + O=CN1CCOCC1
31 | 31.3 ± 2.1 | 27.5 ± 1.9 | 25.9 ± 1.8 | CCCCCCC [heptane] + O=CN1CCOCC1
32 | 11.4 ± 0.78 | 10.7 ± 0.73 | 10 ± 0.68 | CCCCCCC [heptane] + CN1CCCC1=O
33 | 6.37 ± 0.43 | 6.24 ± 0.43 | 6.28 ± 0.43 | C=CCCCCC [1-heptene] + CN1CCCC1=O
34 | 13.8 ± 0.94 | 12.3 ± 0.84 | 11 ± 1 | C1CCCCC1 [cyclohexane] + O=CN1CCOCC1
35 | 13.8 ± 0.94 | 13.2 ± 0.9 | 10.6 ± 0.72 | CCCCCCCC [octane] + CN1CCCC1=O
36 | 8.23 ± 0.56 | 7.62 ± 0.52 | 6.06 ± 0.41 | C1CCCCCCC1 [cyclooctane] + CN1CCCC1=O
37 | 5.16 ± 0.35 | 4.68 ± 0.32 | 4.55 ± 0.31 | C1CCCC1 [cyclopentane] + CN1CCCC1=O
38 | 4.75 ± 0.32 | 4.84 ± 0.33 | 4.99 ± 0.34 | C=CCCC [1-pentene] + CN1CCCC1=O
39 | 3.85 ± 0.26 | 3.83 ± 0.26 | 3.68 ± 0.25 | C#CCCCCC [1-heptyne] + O=CN1CCOCC1
40 | 7.51 ± 0.51 | 6.71 ± 0.46 | 6.8 ± 0.46 | C1CCCCCC1 [cycloheptane] + CN1CCCC1=O
41 | 0.606 ± 0.042 | 0.605 ± 0.042 | 0.618 ± 0.043 | CCO [ethanol] + CN1CCCC1=O
42 | 24.6 ± 1.7 | 21.5 ± 1.5 | 19.6 ± 1.3 | CCCCCC [hexane] + O=CN1CCOCC1
43 | 1.46 ± 0.1 | 1.29 ± 0.083 | 0.933 ± 0.059 | CC(C)O [propan-2-ol] + O=CN1CCOCC1
44 | 5.15 ± 0.35 | 4.9 ± 0.3 | 4.65 ± 0.32 | C#CCCCCCC [1-octyne] + O=CN1CCOCC1
45 | 8.32 ± 0.57 | 8.11 ± 0.55 | 7.54 ± 0.51 | CCCCC [pentane] + CN1CCCC1=O
46 | 1.25 ± 0.08 | 1.15 ± 0.073 | 0.913 ± 0.058 | CCCO [propan-1-ol] + O=CN1CCOCC1

Row | SMILES | activity coefficient (333.2 K) | activity coefficient (348.2 K) | activity coefficient (363.2 K)
47 | Cc1ccccc1 [toluene] + CN1CCCC1=O | 1.39 ± 0.09 | 1.35 ± 0.09 | 1.42 ± 0.09
48 | Cc1ccccc1 [toluene] + O=CN1CCOCC1 | 2.71 ± 0.18 | 4.04 ± 1.5 | 2.55 ± 0.17

— the NIST ThermoML archive (doi:10.1016/j.jct.2013.02.006)
